Experimental findings from PMC9958940 (Viruses, 2023) are described below.

Starred links: 1 amine or outer side, 2 acyl side, 3 side chain; linkers in the order of their positions; H or OH if unused. Positions of bridges follow the written chain, without caps; N, C: chain ends. Non-standard residues stand in square brackets, D forms with d. Residues, ends and D or L forms follow the SMILES beside them. *: point of attachment. hTyr(3S-OH,4S-OH,3'-OSO3H) = N[C@H](C(=O)O)[C@H](O)[C@@H](O)c1ccc(O)c(OS(=O)(=O)O)c1; Orn(4R-OH,5R-OH) = O=C([C@H](C[C@@H](O)[C@@H](O)N[*:3])N[*:1])[*:2]; Pro(3S-OH,4S-Me) = C[C@H]1CN[C@H](C(=O)O)[C@H]1O; X1 = CCCCCOc1ccc(-c2cc(-c3ccc(C(=O)*)cc3)no2)cc1; Gln(3R-OH) = NC(=O)C[C@@H](O)[C@H](N)C(=O)O; Hyp = O=C(O)[C@@H]1C[C@@H](O)CN1

One assay has as its system SARS-CoV-2 E406W variant. The assay is classed as cell-based. As to conditions: read-out: SARS-CoV-2 RNA IC50, E406W.
Assay [1] relates to SARS-CoV-2 R10/E796G C799F. The assay is classed as cell-based. The settings on record: read-out: SARS-CoV-2 RNA IC50, R10/E796G C799F.

With `CCCCCOc1ccc(-c2cc(-c3ccc(C(=O)N[C@H]4C[C@@H](O)[C@@H](O)NC(=O)[C@@H]5[C@@H](O)[C@@H](C)CN5C(=O)[C@H]([C@H](O)CC(N)=O)NC(=O)[C@H]([C@H](O)[C@@H](O)c5ccc(O)c(OS(=O)(=O)O)c5)NC(=O)[C@@H]5C[C@@H](O)CN5C(=O)[C@H]([C@@H](C)O)NC4=O)cc3)no2)cc1` [Micafungin] (X1-[Orn(4R-OH,5R-OH)]T[Hyp][hTyr(3S-OH,4S-OH,3'-OSO3H)][Gln(3R-OH)][Pro(3S-OH,4S-Me)]; lactam 1-C), the IC50 stood at 21.7 µM with SARS-CoV-2 E406W variant and 31.3 µM in assay [1].
